Experimental data as given in patent publication US20180048011A1, “HIGH pH ORGANIC FLOW BATTERY” (President and Fellows of Harvard College, priority 2015, published 2018).
“And” between values parts separate entries of the source, which are not always exact repeats. Equal values may be shown once.

Legend:
Assay type in all cases: physicochemical
[1] = Cyclic voltammetry of FMN and ferrocyanide; settings: 2 mM, 100 mV/s, glassy carbon electrode
Procedure: FIG. 5. Cyclic voltammogram of 2 mM FMN (left curve) and ferrocyanide (right curve) scanned at 100 mV/s on glassy carbon electrode; arrows indicate scan direction.
Before and during the test, the electrolytes were purged with UHP nitrogen to remove and then keep out atmospheric oxygen. […] Galvanostatic cycling shown in […]

[2] = Three-electrode cyclic voltammetry of quinones in 1 M KOH (incl. Pourbaix diagram); settings: for equilibrium cell potential vs. ferro/ferricyanide suggested by cyclic voltammograms: 1 M KOH, 100 mV/s, glassy carbon electrode; for equilibrium potential of couple with ferrocyanide compared with 2,6-DHAQ/ferrocyanide: CV at 100 mV/s on glassy carbon electrode
Procedure: FIG. 1. Pourbaix diagram of 2,6-DHAQ. […] FIGS. 2a-d. a. Cyclic voltammogram of 2 mM 2,6-DHAQ (left curve) and ferrocyanide (right curve) scanned at 100 mV/s; arrows indicate scan direction. Dotted line represents cyclic voltammogram of 1 M KOH background scanned at 100 mV/s. b and c. Cyclic voltammograms of 2,3,6,7-THAQ (left curve in b) and 1,5-DMAQ (left curve in c), respectively, plotted along ferrocyanide (right curve) scanned at 100 mV/s on glassy carbon electrode.
Electrochemical characterization. A glassy carbon electrode was used for three-electrode cyclic voltammetry tests, except in the electrochemical window tests where graphite foil was used to mimic the condition of porous carbon paper. Rotating-disk electrode (RDE) experiments of 2,6-DHAQ (1 mM) in 1 M KOH solution were performed using a BASi RDE-2 rotating-disk electrode system (FIG. 3a). All tests were carried out using a Gamry Reference 3000 potentiostat, with a Pt counter electrode and an Ag/AgCI reference electrode (equilibrated with 3M NaCI, 213 mV vs. standard hydrogen electrode. A Levich plot was constructed from the RDE data by plotting the mass-transport limited current vs. the square root of the rotation rate (FIG. 3b). The diffusion coefficient of 2,6-DHAQ was calculated for each of three runs from the slope of the line fit to the Levich equation (Bard, A. J. & Faulkner, L. R. Electrochemical Methods: Fundamentals and Applications. (Wiley, 2000)). The kinematic viscosity was taken to be 1.08×10^−6 m^2 s^-1 (Hitchcock, L. B. & Mcllhenny, J. S. Ind. Eng. Chem. 27, 461-466 (1935)). The resulting value of the diffusion coefficient is 4.8(2) x 10^-6 cm^2 s^-1.

[3] = Cyclic voltammogram modeling (simulated fit to measured CV)
Procedure: FIGS. 3a-3d. a. Rotating disk electrode study of the reduction of a 1 mM solution of 2,6-DHAQ in 1 M KOH on a glassy carbon electrode at various rotation rates (curves from top to bottom in legend). b. Levich plot of 1 mM 2,6-DHAQ in 1 M KOH. Data are an average of the current at -1.187 V vs. SHE for each of three runs; error bars indicate the standard deviation. c. Cyclic voltammogram of 1 mM 2,6-DHAQ in 1 M KOH (solid line). Dashed lines represent simulated cyclic voltammograms of a two-electron reduction of varying electrochemical rate constant ko and a reduction potential Eo of -0.684 V vs. SHE. The simulations assumed a ═0.5. The scan rate in all cases was 25 mV s^-1. d. Cyclic voltammogram of 1 mM 2,6-DHAQ in 1 M KOH (solid line). Dashed lines represent the simulated components of two successive one-electron reductions with reduction potentials of -0.657 V vs. SHE and -0.717 V vs. SHE, respectively, as well as the simulated total current arising from such a reaction. Each simulated reduction has a rate constant ko ═7 x 10^-3 cm 5^-1. The simulations assumed a ═0.5.
Cyclic voltammogram modeling. Computation was performed using Mathematica 10.0.1.0 according to algorithms by Oldham and Myland (Oldham, K. B. & Myland, J. C. Electrochim. Acta 56, 10612-10625 (2011)). The diffusivity of 2,6-DHAQ and both the one-electron and two-electron reduction products were assumed to be 4.8 x 10^-6 cm^2 s^-1, based on our RDE studies. The temperature was 293 K. Time was discretized into 40 ms increments, and the current at each time was computed based on the sum of previous currents as described by Oldham (Oldham, K. B. & Myland, J. C. Electrochim. Acta 56, 10612-10625 (2011)).
To model the two-electron reduction process (FIG. 1), the Butler-Volmer equation with the number of electrons n ═2 was used in place of Oldham equation (4:5), and the right-hand-side of equation (8:3) was multiplied by 2 to account for a two-electron reduction (Bard, A. J. & Faulkner, L. R. Electrochemical Methods: Fundamentals and Applications. (Wiley, 2000); Oldham, K. B. & Myland, J. C. Electrochim. Acta 56, 10612-10625 (2011)). The reduction potential was assumed to be equal to the voltage equidistant from the two peaks on the measured cyclic voltammogram (-0.684 V vs. SHE) and the charge transfer coefficient a was assumed to be 0.5. The electrochemical rate constant ko was then varied from 10^-3 cm s^-1 to 10^-5 cm s^-1.
To model the two successive one-electron reductions (FIG. 3d), Oldham equations (12:13) and (12:14) were used (Oldham, K. B. & Myland, J. C. Electrochim. Acta 56, 10612-10625 (2011)). The charge transfer coefficients al and a2 were assumed to be equal to 0.5, and the electrochemical rate constants for the two reductions were assumed equal. The values of the single rate constant and the first and second reduction potentials were permitted to vary freely. A reasonable fit to the experimental data was observed when the reduction potential of the first reduction Ei ═-0.657 V vs. SHE, the reduction potential of the second reduction E2 ═-0.717 V vs. SHE, and the two electrochemical rate constants ko,i and ko,2 both equaled 7×10^−3 cm s^-1, a value very close to that observed in other anthraquinone systems (Huskinson, B. et al. Nature 505, 195-198 (2014)).

[4] = Solubility measurement by UV-Vis absorbance at 413 nm; settings: 1 M KOH solution, pH 14, aqueous buffer, thermodynamic from solid; room temperature, in 1 M KOH
Procedure: Solubility measurement. Room temperature solubility in 1 M KOH solution was measured by measuring the absorbance at 413 nm and comparing to an absorbance-vs.-concentration calibration curve determined by preparing known concentrations of 2,6-DHAQ. UV-Vis spectrophotometry measurements were performed using an Agilent Cary 60 spectrophotometer equipped with a Quantum
Northwest T2 temperature regulator. Appropriate aliquots of 2,6-DHAQ stock solution were added to 1 M KOH blank solution and their UV-Vis absorbance spectra measured. A saturated solution of 2,6-DHAQ in 1 M KOH was prepared by adding 2,6-DHAQ potassium salt into 1 M KOH solution (10 mL) until a thin layer of precipitate formed, the remaining solution was diluted by known proportions, and the absorbance of the resulting solution was compared to the calibration curve.

[5] = Chemical and electrochemical stability by proton NMR; settings: sensitivity level of 1%; after 30 days in 5 M KOH at 100° C. and after 100 charge-discharge cycles (FIGS. 15a-c)
Procedure: FIGS. 15a-15c. Chemical and electrochemical stability of 2,6-DHAQ. ^1H NMR (500 MHz, DMSO-d6) spectra. a. 2,6-DHAQ 6: 8.04 (d, 2H, J═8.3 Hz, 2 x ArCH), 7.47 (d, 2H, J═2.5 Hz, 2 x ArCH), 7.19 (dd, 2H, J═8.3, 2.5 Hz, 2 x ArCH). b. 2,6-DHAQ, after 30 days heating in 5 M KOH solution at 100° C. c. 2,6-DHAQ, after 100 charge-discharge cycles.
The cell was cycled at a constant current density of ±0.1 A cm^-2 for 100 cycles (FIG. 14a). […] A 0.1% loss in capacity per cycle was observed during cycling, which appears to be a continuous loss of electro-active species over the 100 cycles (FIG. 14b). We explored three possible loss mechanisms: chemical decomposition, electrolyte crossover through the membrane, and leakage from the pumping system. […] This observation places an upper limit on crossover of 0.8% of the DHAQ, implying a crossover current density of <2.5 μA cm^-2 (FIGS. 16a and 16b). […] A source of leakage was readily apparent but not quantifiable at the exit of the humidified nitrogen bubbling through the negolyte to prevent energy loss by permeation of atmospheric oxygen. Coloration could also be found on the gaskets, indicating a likely site of electrolyte leakage (FIGS. 17a and 17b).

[6] = Crossover study: CV of ferro-ferricyanide posolyte after 100 charge-discharge cycles; settings: for fraction of 2,6-DHAQ crossed over the membrane into the posolyte: Nafion membrane
Procedure: FIGS. 16a-16b. Test of electrolyte permeation through membrane. Full (a) and zoomed in (b) cyclic voltammograms of 0.4 M ferro-ferricyanide electrolyte after 100 charge-discharge cycles. Same posolyte to which was added 3.9 mM 2,6-DHAQ, and 7.6 mM 2,6-DHAQ.
Crossover study. The concentration of crossed-over 2,6-DHAQ into the ferro-ferricyanide posolyte solution was evaluated using CV. After 100 charge-discharge cycles, the ferro-ferricyanide posolyte solution (5 mL) was collected and analyzed by CV (scan at 100 mV/s. The correlation between the CV signal and 2,6-DHAQ concentration was established by titrating known amounts of 2,6-DHAQ (12 mg or […]) to the cycled posolyte followed by controlled dilution. The comparison indicates <10 mM 2,6-DHAQ had crossed over into the posolyte, which corresponds to <2% of the 2,6-DHAQ originally assembled into the negolyte.

[7] = Rotating-disk electrode study / Levich plot; settings: 1 mM in 1 M KOH, Levich equation, three runs
Procedure: FIGS. 3a-3d. a. Rotating disk electrode study of the reduction of a 1 mM solution of 2,6-DHAQ in 1 M KOH on a glassy carbon electrode at various rotation rates (curves from top to bottom in legend). b. Levich plot of 1 mM 2,6-DHAQ in 1 M KOH. Data are an average of the current at -1.187 V vs. SHE for each of three runs; error bars indicate the standard deviation. c. Cyclic voltammogram of 1 mM 2,6-DHAQ in 1 M KOH (solid line). Dashed lines represent simulated cyclic voltammograms of a two-electron reduction of varying electrochemical rate constant ko and a reduction potential Eo of -0.684 V vs. SHE. The simulations assumed a ═0.5. The scan rate in all cases was 25 mV s^-1. d. […]
Electrochemical characterization. […] All tests were carried out using a Gamry Reference 3000 potentiostat, with a Pt counter electrode and an Ag/AgCI reference electrode (equilibrated with 3M NaCI, 213 mV vs. standard hydrogen electrode. A Levich plot was constructed from the RDE data by plotting the mass-transport limited current vs. the square root of the rotation rate (FIG. 3b). The diffusion coefficient of 2,6-DHAQ was calculated for each of three runs from the slope of the line fit to the Levich equation (Bard, A. J. & Faulkner, L. R. Electrochemical Methods: Fundamentals and Applications. (Wiley, 2000)). The kinematic viscosity was taken to be 1.08×10^−6 m^2 s^-1 (Hitchcock, L. B. & Mcllhenny, J. S. Ind. […]

[8] = 1 mM in 1 M KOH, simulated fit, two successive one-electron reductions
[9] = after 100 charge-discharge cycles

Question: With Cc1cc2nc3c(=O)[nH]c(=O)nc-3n(C[C@@H](O)[C@@H](O)[C@@H](O)COP(=O)(O)O)c2cc1C [FMN, riboflavin 5′ phosphate] as the compound, how does the “overall peak separation of cyclic voltammograms vs. ferrocyanide” value [1] read?
Answer: The value was 1 V.

Question: With O=C1c2cc(O)c(O)cc2C(=O)c2cc(O)c(O)cc21 [2,3,6,7-THAQ, 2,3,6,7-tetrahydroxy-9,10-anthraquinone] as the compound, how does the “equilibrium cell potential vs. ferro/ferricyanide suggested by cyclic voltammograms” value [2] read?
Answer: Its value is ~1.35 V.

Question: And the “equilibrium potential of couple with ferrocyanide compared with 2,6-DHAQ/ferrocyanide” value [2]?
Answer: Its value is “higher equilibrium potential than 2,6-DHAQ/ferrocyanide”.

Question: With O=C1c2ccc(O)cc2C(=O)c2ccc(O)cc21 [2,6-DHAQ, 2,6-dihydroxy-9,10-anthraquinone] as the compound, how does the “reduction potential E0 (voltage equidistant from the two CV peaks)” value ([3]; 1 mM in 1 M KOH, two-electron reduction model) read?
Answer: The value was -0.684 V vs. SHE.

Question: And the “reduction potential of the first one-electron reduction” value [3, 8]?
Answer: The value was -0.657 V vs. SHE.

Question: And the “reduction potential of the second one-electron reduction” value [3, 8]?
Answer: Its value is -0.717 V vs. SHE.

Question: And the “rate constant ko of each simulated reduction” value ([3]; FIG. 3d legend, simulated fit)?
Answer: Its value is 7 x 10^-3 cm 5^-1.

Question: What about the “separation of the potentials of the two one-electron reductions” value ([3]; pH 14) of the same compound?
Answer: Its value is 0.06 V.

Question: And the “electrochemical rate constant k0 (both reductions)” value ([3]; simulated fit, charge transfer coefficient 0.5)?
Answer: Its value is 0.007 cm/s.

Question: What about the “equilibrium cell potential vs. ferro/ferricyanide suggested by cyclic voltammograms” value [2] of the same compound?
Answer: The value was 1.2 V.

Question: What about the solubility [4] of the same compound?
Answer: Its solubility is > 600 mM.

Question: What about the “decomposition by proton NMR” value [5] of the same compound?
Answer: The value was “no decomposition product”.

Question: And the “concentration of 2,6-DHAQ crossed over into the posolyte” value [6, 9]?
Answer: The value was < 10000 µM.

Question: What about the “fraction of 2,6-DHAQ crossed over the membrane into the posolyte” value [6, 9] of the same compound?
Answer: Its value is < 1% and < 2%.

Question: And the “fraction of 2,6-DHAQ crossed over the membrane into the posolyte” value ([6]; after 100 charge-discharge cycles, listed as DHAQ)?
Answer: Its value is ≤ 0.8%.

Question: And the crossover current density ([6]; implied by crossover upper limit)?
Answer: The crossover current density was < 2.5 μA cm^-2.

Question: What about the diffusion coefficient [7] of the same compound?
Answer: The diffusion coefficient was 4.8(2) x 10^-6 cm^2 s^-1.

Question: With Cc1c(O)ccc2c1C(=O)c1ccc(O)c(C)c1C2=O [1,5-DMAQ, 1,5-dimethyl-2,6-dihydroxy-9,10-anthraquinone] as the compound, how does the “equilibrium cell potential vs. ferro/ferricyanide suggested by cyclic voltammograms” value [2] read?
Answer: The value was ~1.35 V.

Question: And the “equilibrium potential of couple with ferrocyanide compared with 2,6-DHAQ/ferrocyanide” value [2]?
Answer: Its value is “higher equilibrium potential than 2,6-DHAQ/ferrocyanide”.
